According to patent US6800653B2, “Epothilone derivatives” (priority 2001, dated 2004):
Where two headings read alike, the source gives them in different places.

How the values were obtained:
calf brain tubulin = assay: In vitro tubulin polymerization; type: biochemical; conditions: interpolated concentration inducing an initial slope of 0.01 OD/minute; 1.0 mg/ml microtubule protein, 37°; read-out: Tubulin assay EC0.01
Procedure: In vitro Tubulin Polymerization
Twice cycled (2×) calf brain tubulin was prepared following the procedure of Williams and Lee (see Williams, R. C., Jr., and Lee, J. C. Preparation of tubulin from brain. Methods in Enzymology 85, Pt. D: 376-385, 1982) and stored in liquid nitrogen before use. Quantification of tubulin polymerization potency is accomplished following a modified procedure of Swindell, et al., (see Swindell, C. S., Krauss, N. E., Horwitz, S. B., and Ringel, L. Biologically active taxol analogues with deleted A-ring side chain substituents and variable C-2′ configurations. J. Med. Chem. 34: 1176-1184, 1991). These modifications, in part, result in the expression of tubulin polymerization potency as an effective concentration for any given compound. For this method, different concentrations of compound in polymerization buffer (0.1M MES, 1 mM EGTA, 0.5 mM MgCl2, pH 6.6) are added to tubulin in polymerization buffer at 37° in microcuvette wells of a Beckman (Beckman Instruments) Model DU 7400 UV spectrophotometer. A final microtubule protein concentration of 1.0 mg/ml and compound concentration of generally 2.5, 5.0, and 10 μM are used. Initial slopes of OD change measured every 10 seconds were calculated by the program accompanying the instrument after initial and final times of the linear region encompassing at least 3 time points were manually defined. Under these conditions linear variances were generally <10^−6, slopes ranged from 0.03 to 0.002 absorbance unit/minute, and maximum absorbance was 0.15 absorbance units. Effective concentration (EC0.01) is defined as the interpolated concentration capable of inducing an initial slope of 0.01 OD/minute rate and is calculated using the formula: EC0.01=concentration/slope. EC0.01 values are expressed as the mean with standard deviation obtained from 3 different concentrations. EC0.01 values for the compounds in this invention fall in the range 0.01-1000 μM.

[1] = system: HCT-116 human colon carcinoma cells; assay: Cytotoxicity (in vitro) by MTS assay; type: cell-based; conditions: read-out: HTC-116 assay IC50
Procedure: Cytoxicity was assessed in HCT-116 human colon carcinoma cells by MTS (3-(4,5-dimethylthiazol-2-yl)-5-(3-carboxymethoxyphenyl)-2-(4-sulphenyl)-2H-tetrazolium, inner salt) assay as reported in T. L. Riss, et. al., “Comparison of MTT, XTT, and a novel tetrazolium compound MTS for in vitro proliferation and chemosensitivity assays.,” Mol. Biol. Cell 3 (Suppl.): 184a, 1992. Cells were plated at 4,000 cell/well in 96 well microtiter plates and 24 hours later drugs were added and serial diluted. The cells were incubated at 37° form 72 hours at which time the tetrazolium dye, MTS at 333 μg/ml (final concentration), in combination with the electron coupling agent phenazine methosulfate at 25 μM (final concentration) was added. A dehydrogenase enzyme in live cells reduces the MTS to a form that absorbs light at […] which can be quantitated spectrophotometrically. The greater the absorbance the greater the number of live cells. The results are expressed as an IC50, which is the drug concentration required to inhibit cell proliferation (i.e. absorbance at 450 nm) to 50% of that of untreated control cells.

[2] = HCT-116, 72 hours incubation, MTS

Structure (SMILES): C/C(=C\c1csc(C)n1)C1CC2[C@@H](CCC[C@H](C)[C@H](O)[C@@H](C)C(=O)C(C)(C)[C@@H](O)CC(=O)O1)N2C(=O)Oc1ccccc1 (relative stereo) [Example 20, [1S-[1R*,3R*(E),7R*,10S,11R*,12R*,16S*]]-7,11-dihydroxy-8,8,10,12-tetramethyl-3-[1-methyl-2-(2-methyl-4-thiazolyl)ethenyl]-4-oxa-17-azabicyclo[14.1.0]heptadecane-5,9-dione-17-carboxylic acid phenyl ester.]
- EC50 (calf brain tubulin): 1100 nM
- IC50 [1, 2]: 1.8 nM

Structure (SMILES): C/C(=C\c1csc(C)n1)[C@@H]1C[C@H]2C(CCCC(C)[C@H](O)[C@@H](C)C(=O)C(C)(C)[C@@H](O)CC(=O)O1)[N@@]2Cc1ccccc1 (relative stereo) [Example 15, [1S-[1R*,3R*(E),7R*,10S,11R*,12R*,16S*]]-17-Benzyl-7,11-dihydroxy-8,8,10,12-tetramethyl-3-[1-methyl-2-(2-methyl-4-thiazolyl)ethenyl]-4-oxa-17-azabicyclo[14.1.0]heptadecane-5,9-dione.]
- EC50 (calf brain tubulin): 35000 nM
- IC50 ([1]; HCT-116, 72 h): 23 nM

Structure (SMILES): CNS(=O)(=O)[N@@]1C2CCCC(C)[C@H](O)[C@@H](C)C(=O)C(C)(C)[C@@H](O)CC(=O)O[C@H](/C(C)=C/c3csc(C)n3)C[C@@H]21 (relative stereo) [Example 17]
- EC50 (calf brain tubulin): 2300 nM
- IC50 [1, 2]: 7.8 nM
